Experiments:
Type in all cases: functional
SW-620 [1] = test: Antitumor activity against human SW620 cells at 50 uM after 48 hrs by Sulforhodamine assay; settings: SW-620, 48 h, read-out: GI
A549 [2] = test: Antitumor activity against human A549 cells at 50 uM after 48 hrs by Sulforhodamine assay; settings: A549, 48 h, read-out: GI
IMR-32 [3] = test: Antitumor activity against human IMR32 cells at 50 uM after 48 hrs by Sulforhodamine assay; settings: IMR-32, 48 h, read-out: GI
HCT-15 [4] = test: Antitumor activity against human HCT15 cells at 50 uM after 48 hrs by Sulforhodamine assay; settings: HCT-15, 48 h, read-out: GI
IGROV-1 [5] = test: Antitumor activity against human IGROV1 cells at 50 uM after 48 hrs by Sulforhodamine assay; settings: IGROV-1, 48 h, read-out: GI
SW-620 [6] = test: Antitumor activity against human SW620 cells at 20 uM after 48 hrs by Sulforhodamine assay; settings: SW-620, 48 h, read-out: GI
HCT-15 [7] = test: Antitumor activity against human HCT15 cells at 20 uM after 48 hrs by Sulforhodamine assay; settings: HCT-15, 48 h, read-out: GI
IGROV-1 [8] = test: Antitumor activity against human IGROV1 cells at 10 uM after 48 hrs by Sulforhodamine assay; settings: IGROV-1, 48 h, read-out: GI
A549 [9] = test: Antitumor activity against human A549 cells at 10 uM after 48 hrs by Sulforhodamine assay; settings: A549, 48 h, read-out: GI
IMR-32 [10] = test: Antitumor activity against human IMR32 cells at 1 uM after 48 hrs by Sulforhodamine assay; settings: IMR-32, 48 h, read-out: GI

Compound	inhibition of growth at 50 µM (SW-620 [1])	inhibition of growth at 50 µM (A549 [2])	inhibition of growth at 50 µM (IMR-32 [3])	inhibition of growth at 50 µM (HCT-15 [4])	inhibition of growth at 50 µM (IGROV-1 [5])	other results
CC(=O)O[C@H]1C[C@H]2[C@H](C)CC[C@H]3[C@@H](C)C(=O)O[C@@H]4O[C@@]1(C)OO[C@]423	0%	28%	31%	32%	10%	–
O=c1[nH]cc(F)c(=O)[nH]1 [FLUOROURACIL]	–	–	–	–	–	inhibition of growth at 20 µM (SW-620 [6]): 54%; inhibition of growth at 20 µM (HCT-15 [7]): 49%
C[C@@H]1CC[C@H]2[C@@H](C)C(=O)O[C@@H]3O[C@@]4(C)OO[C@@]32[C@H]1C[C@H]4O	0%	18%	20%	28%	3%	–
CC(=O)O[C@H]1C(=O)[C@@]2(C)[C@H]([C@H](OC(=O)c3ccccc3)[C@]3(O)C[C@H](OC(=O)[C@H](O)[C@@H](NC(=O)c4ccccc4)c4ccccc4)C(C)=C1C3(C)C)[C@]1(OC(C)=O)CO[C@@H]1C[C@@H]2O [PACLITAXEL]	–	–	–	–	–	inhibition of growth at 10 µM (IGROV-1 [8]): 56%; inhibition of growth at 10 µM (A549 [9]): 52%
C[C@@H]1CC[C@H]2[C@@H](C)C(=O)O[C@@H]3O[C@@]4(C)CC[C@@H]1[C@]32OO4 [ARTEMISININ]	35%	29%	23%	31%	26%	–
COc1cccc2c1C(=O)c1c(O)c3c(c(O)c1C2=O)C[C@@](O)(C(=O)CO)C[C@@H]3O[C@H]1C[C@H](N)[C@H](O)[C@H](C)O1 [DOXORUBICIN]	–	–	–	–	–	inhibition of growth at 1 µM (IMR-32 [10]): 72%

Source: ChEMBL document CHEMBL1153116, “Bio-transformation of artemisinin using soil microbe: Direct C-acetoxylation of artemisinin at C-9 by Penicillium simplissimum” (2010)
